Measured values published in US20260191968A1, “PROTAC DEGRADERS OF MLLT1 AND/OR MLLT3” (DARK BLUE THERAPEUTICS LTD, priority 2024, published 2026).

Tests used:
MV4-11 cells = test: MV4-11 cellular proliferative assay, Assay Format B (CTG 2.0, 168 h); assay type: cell-based; conditions: Homo sapiens, 168 h (7 days), CTG 2.0, read-out: IC50 (MV4-11 cellular proliferative assay, Assay format B)
Outline: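 MV4-11 cells seeded overnight in IMDM + 10% FBS, then exposed to 10-point, 3-fold dilutions from 1 uM or 100 nM top concentration (0.3% DMSO final) for 168 h at 37 °C. CTG 2.0 luminescence read; % viability vs DMSO control fitted by four-parameter logistic regression.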

MLLT1 = target: T1, MLLT1 (Homo sapiens, UniProt Q03111); test: MLLT1 degradation assay in MV4-11 cells (JESS chemiluminescent detection), three concentrations, 24 h; assay type: cell-based; conditions: with respect to DMSO control
T1 construct: host or cells: MV4-11
T1 sequence (Q03111 1-559): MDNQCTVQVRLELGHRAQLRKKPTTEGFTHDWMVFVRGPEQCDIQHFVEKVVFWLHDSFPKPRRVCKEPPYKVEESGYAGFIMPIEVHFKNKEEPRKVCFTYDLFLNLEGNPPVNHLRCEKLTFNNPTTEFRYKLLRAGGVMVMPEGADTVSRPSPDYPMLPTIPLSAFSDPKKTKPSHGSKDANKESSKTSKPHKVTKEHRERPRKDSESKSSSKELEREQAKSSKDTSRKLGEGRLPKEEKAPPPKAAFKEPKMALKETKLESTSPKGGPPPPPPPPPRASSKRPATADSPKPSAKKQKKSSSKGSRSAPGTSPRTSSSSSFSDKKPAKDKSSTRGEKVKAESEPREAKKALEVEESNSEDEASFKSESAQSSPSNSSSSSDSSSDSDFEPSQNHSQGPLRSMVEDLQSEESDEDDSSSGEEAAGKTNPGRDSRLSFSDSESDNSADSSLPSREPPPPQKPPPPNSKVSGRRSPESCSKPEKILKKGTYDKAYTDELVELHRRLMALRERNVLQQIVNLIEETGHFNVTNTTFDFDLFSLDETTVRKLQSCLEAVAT
Outline: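 MV4-11 cells treated 24 h at 37° C, 5% CO2 with 1000, 100 and 10 nM compound (0.1% DMSO final). MLLT1 quantified by automated capillary chemiluminescent immunodetection; band peak area expressed as % degradation relative to DMSO control.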

CN1CCC[C@@H]1c1cc2cnc(NC(=O)c3ccc(N4CCN(CCCC#Cc5cccc6c5CN(C5CCC(=O)NC5=O)C6=O)CC4)nc3)cc2[nH]1 (stereo partly drawn) [Example 149, 6-(4-(5-(2-(2,6-dioxopiperidin-3-yl)-1-oxoisoindolin-4-yl)pent-4-yn-1-yl)piperazin-1-yl)-N-(2-((R)-1-methylpyrrolidin-2-yl)-1H-pyrrolo[3,2-c]pyridin-6-yl)nicotinamide]
IC50 (MV4-11 cells): ≤ 100 nM | MLLT1% Degradation @ 0.01 μM (MLLT1): A (Category A: A ≥ 75% degradation) | MLLT1% Degradation @ 0.1 μM (MLLT1): A (Category A: A ≥ 75% degradation) | MLLT1% Degradation @ 1 μM (MLLT1): A (Category A: A ≥ 75% degradation)

CN1CCC[C@@H]1c1cc2cnc(NC(=O)c3cccc(CCCC#Cc4cccc5c4CN(C4CCC(=O)NC4=O)C5=O)c3)cc2[nH]1 (stereo partly drawn) [Example 95, 3-(5-(2-(2,6-dioxopiperidin-3-yl)-1-oxoisoindolin-4-yl)pent-4-yn-1-yl)-N-(2-((R)-1-methylpyrrolidin-2-yl)-1H-pyrrolo[3,2-c]pyridin-6-yl)benzamide]
IC50 (MV4-11 cells): ≤ 100 nM | MLLT1% Degradation @ 0.01 μM (MLLT1): A (Category A: A ≥ 75% degradation) | MLLT1% Degradation @ 0.1 μM (MLLT1): A (Category A: A ≥ 75% degradation) | MLLT1% Degradation @ 1 μM (MLLT1): A (Category A: A ≥ 75% degradation)

CN1CCC[C@@H]1c1cc2cnc(NC(=O)c3ccc(OCC4CCN(c5cccc6c5CN(C5CCC(=O)NC5=O)C6=O)CC4)cc3)cc2[nH]1 (stereo partly drawn) [Example 159, 4-((1-(2-(2,6-dioxopiperidin-3-yl)-1-oxoisoindolin-4-yl)piperidin-4-yl)methoxy)-N-(2-((R)-1-methylpyrrolidin-2-yl)-1H-pyrrolo[3,2-c]pyridin-6-yl)benzamide]
IC50 (MV4-11 cells): ≤ 100 nM | MLLT1% Degradation @ 0.01 μM (MLLT1): A (Category A: A ≥ 75% degradation) | MLLT1% Degradation @ 0.1 μM (MLLT1): A (Category A: A ≥ 75% degradation) | MLLT1% Degradation @ 1 μM (MLLT1): A (Category A: A ≥ 75% degradation)

CN1CCC[C@@H]1c1cc2cnc(NC(=O)c3ccc(CCCC4CCN(c5cccc6c5CN(C5CCC(=O)NC5=O)C6=O)CC4)cc3F)cc2[nH]1 (mixture of isomers) [Example 174, 4-(3-(1-(2-(2,6-dioxopiperidin-3-yl)-1-oxoisoindolin-4-yl)piperidin-4-yl)propyl)-2-fluoro-N-(2-((R)-1-methylpyrrolidin-2-yl)-1H-pyrrolo[3,2-c]pyridin-6-yl)benzamide]
IC50 (MV4-11 cells): ≤ 100 nM | MLLT1% Degradation @ 0.01 μM (MLLT1): A (Category A: A ≥ 75% degradation) | MLLT1% Degradation @ 0.1 μM (MLLT1): A (Category A: A ≥ 75% degradation) | MLLT1% Degradation @ 1 μM (MLLT1): A (Category A: A ≥ 75% degradation)

CN1CCC[C@@H]1c1cc2cnc(NC(=O)c3ccc(N4CCN(CC5CCN(c6ccc7c(c6)n(C)c(=O)n7C6CCC(=O)NC6=O)CC5)CC4)cc3)cc2[nH]1 (stereo partly drawn) [Example 170, 4-(4-((1-(1-(2,6-dioxopiperidin-3-yl)-3-methyl-2-oxo-2,3-dihydro-1H-benzo[d]imidazol-5-yl)piperidin-4-yl)methyl)piperazin-1-yl)-N-(2-((R)-1-methylpyrrolidin-2-yl)-1H-pyrrolo[3,2-c]pyridin-6-yl)benzamide]
IC50 (MV4-11 cells): ≤ 100 nM | MLLT1% Degradation @ 0.01 μM (MLLT1): A (Category A: A ≥ 75% degradation) | MLLT1% Degradation @ 0.1 μM (MLLT1): A (Category A: A ≥ 75% degradation) | MLLT1% Degradation @ 1 μM (MLLT1): A (Category A: A ≥ 75% degradation)

C[C@@H]1CN(CC2CCN(c3cccc4c3CN(C3CCC(=O)NC3=O)C4=O)CC2)CCN1c1ccc(C(=O)Nc2cc3[nH]c([C@H]4CCCN4C)cc3cn2)cc1 (relative stereo) [Example 135, 4-((R)-4-((1-(2-((rel-S)-2,6-dioxopiperidin-3-yl)-1-oxoisoindolin-4-yl)piperidin-4-yl)methyl)-2-methylpiperazin-1-yl)-N-(2-((R)-1-methylpyrrolidin-2-yl)-1H-pyrrolo[3,2-c]pyridin-6-yl)benzamide]
IC50 (MV4-11 cells): ≤ 100 nM | MLLT1% Degradation @ 0.01 μM (MLLT1): A (Category A: A ≥ 75% degradation) | MLLT1% Degradation @ 0.1 μM (MLLT1): A (Category A: A ≥ 75% degradation) | MLLT1% Degradation @ 1 μM (MLLT1): A (Category A: A ≥ 75% degradation)

CN1CCC[C@@H]1c1cc2cnc(NC(=O)c3ccc(C4CCN(CC5CCN(c6cccc7c6CN(C6CCC(=O)NC6=O)C7=O)CC5)CC4)cc3)cc2[nH]1 (stereo partly drawn) [Example 167, 4-(1-((1-(2-(2,6-dioxopiperidin-3-yl)-1-oxoisoindolin-4-yl)piperidin-4-yl)methyl)piperidin-4-yl)-N-(2-((R)-1-methylpyrrolidin-2-yl)-1H-pyrrolo[3,2-c]pyridin-6-yl)benzamide]
IC50 (MV4-11 cells): ≤ 100 nM | MLLT1% Degradation @ 0.01 μM (MLLT1): A (Category A: A ≥ 75% degradation) | MLLT1% Degradation @ 0.1 μM (MLLT1): A (Category A: A ≥ 75% degradation) | MLLT1% Degradation @ 1 μM (MLLT1): A (Category A: A ≥ 75% degradation)

CN1CCC[C@@H]1c1cc2cnc(NC(=O)c3ccc(CCCC#Cc4cccc5c4CN(C4CCC(=O)NC4=O)C5=O)cn3)cc2[nH]1 (stereo partly drawn) [Example 197, 5-(5-(2-(2,6-dioxopiperidin-3-yl)-1-oxoisoindolin-4-yl)pent-4-yn-1-yl)-N-(2-((R)-1-methylpyrrolidin-2-yl)-1H-pyrrolo[3,2-c]pyridin-6-yl)picolinamide]
IC50 (MV4-11 cells): ≤ 100 nM | MLLT1% Degradation @ 0.01 μM (MLLT1): A (Category A: A ≥ 75% degradation) | MLLT1% Degradation @ 0.1 μM (MLLT1): A (Category A: A ≥ 75% degradation) | MLLT1% Degradation @ 1 μM (MLLT1): A (Category A: A ≥ 75% degradation)

CN1CCC[C@@H]1c1cc2cnc(NC(=O)c3ccc(N4CCC(OC5CCN(c6cccc7c6CN(C6CCC(=O)NC6=O)C7=O)CC5)CC4)nc3)cc2[nH]1 (stereo partly drawn) [Example 145, 6-(4-((1-(2-(2,6-dioxopiperidin-3-yl)-1-oxoisoindolin-4-yl)piperidin-4-yl)oxy)piperidin-1-yl)-N-(2-((R)-1-methylpyrrolidin-2-yl)-1H-pyrrolo[3,2-c]pyridin-6-yl)nicotinamide]
IC50 (MV4-11 cells): ≤ 100 nM | MLLT1% Degradation @ 0.01 μM (MLLT1): A (Category A: A ≥ 75% degradation) | MLLT1% Degradation @ 0.1 μM (MLLT1): A (Category A: A ≥ 75% degradation) | MLLT1% Degradation @ 1 μM (MLLT1): A (Category A: A ≥ 75% degradation)

CN1CCC[C@@H]1c1cc2cnc(NC(=O)c3ccc(OCCN4CCN(c5cccc6c5CN(C5CCC(=O)NC5=O)C6=O)CC4)cc3)cc2[nH]1 (stereo partly drawn) [Example 142, 4-(2-(4-(2-(2,6-dioxopiperidin-3-yl)-1-oxoisoindolin-4-yl)piperazin-1-yl)ethoxy)-N-(2-((R)-1-methylpyrrolidin-2-yl)-1H-pyrrolo[3,2-c]pyridin-6-yl)benzamide]
IC50 (MV4-11 cells): ≤ 100 nM | MLLT1% Degradation @ 0.01 μM (MLLT1): A (Category A: A ≥ 75% degradation) | MLLT1% Degradation @ 0.1 μM (MLLT1): A (Category A: A ≥ 75% degradation) | MLLT1% Degradation @ 1 μM (MLLT1): A (Category A: A ≥ 75% degradation)

CN1CCC[C@@H]1c1cc2cnc(NC(=O)c3ccc(-c4cnn(CCCC5CCN(c6cccc7c6CN(C6CCC(=O)NC6=O)C7=O)CC5)c4)cc3F)cc2[nH]1 (stereo partly drawn) [Example 212, 4-(1-(3-(1-(2-(2,6-dioxopiperidin-3-yl)-1-oxoisoindolin-4-yl)piperidin-4-yl)propyl)-1H-pyrazol-4-yl)-2-fluoro-N-(2-((R)-1-methylpyrrolidin-2-yl)-1H-pyrrolo[3,2-c]pyridin-6-yl)benzamide]
IC50 (MV4-11 cells): ≤ 100 nM | MLLT1% Degradation @ 0.01 μM (MLLT1): A (Category A: A ≥ 75% degradation) | MLLT1% Degradation @ 0.1 μM (MLLT1): A (Category A: A ≥ 75% degradation) | MLLT1% Degradation @ 1 μM (MLLT1): A (Category A: A ≥ 75% degradation)

CN1CCC[C@@H]1c1cc2cnc(NC(=O)c3ccc(OCCC4CCN(c5cccc6c5C(=O)N(C5CCC(=O)NC5=O)C6=O)CC4)cc3)cc2[nH]1 (stereo partly drawn) [Example 82, 4-(2-(1-(2-(2,6-dioxopiperidin-3-yl)-1,3-dioxoisoindolin-4-yl)piperidin-4-yl)ethoxy)-N-(2-((R)-1-methylpyrrolidin-2-yl)-1H-pyrrolo[3,2-c]pyridin-6-yl)benzamide]
IC50 (MV4-11 cells): ≤ 100 nM | MLLT1% Degradation @ 0.01 μM (MLLT1): B (Category B: 50% ≤ B < 75% degradation) | MLLT1% Degradation @ 0.1 μM (MLLT1): A (Category A: A ≥ 75% degradation) | MLLT1% Degradation @ 1 μM (MLLT1): A (Category A: A ≥ 75% degradation)

CN1CCC[C@@H]1c1cc2cnc(NC(=O)c3ccc(N4CCN(CC5CCN(c6cccc7c6CN([C@H]6CCC(=O)NC6=O)C7=O)CC5)CC4)cc3)cc2[nH]1 (relative stereo) [Example 117, 4-(4-((1-(2-((rel-S)-2,6-dioxopiperidin-3-yl)-1-oxoisoindolin-4-yl)piperidin-4-yl)methyl)piperazin-1-yl)-N-(2-((R)-1-methylpyrrolidin-2-yl)-1H-pyrrolo[3,2-c]pyridin-6-yl)benzamide]
IC50 (MV4-11 cells): ≤ 100 nM | MLLT1% Degradation @ 0.01 μM (MLLT1): B (Category B: 50% ≤ B < 75% degradation) | MLLT1% Degradation @ 0.1 μM (MLLT1): A (Category A: A ≥ 75% degradation) | MLLT1% Degradation @ 1 μM (MLLT1): B (Category B: 50% ≤ B < 75% degradation)
